One test has as its system H727 cells. Put plainly: Inhibition of KRas-mediated phosphorylation of ERK (Cisbio HTRF pERK), H727 cells. It is filed as cell-based. The settings on record: Homo sapiens; for IC50: NCI-H727, 3 h, 3 hr compound incubation, Cisbio pERK HTRF; for inhibition at 0.1 µM: NCI-H727, single point at 100 nM, 3 hrs compound incubation.
For the next test, the target named is KRas G12R (Homo sapiens, UniProt P01116, G12R). Put plainly: biochemical. The settings on record: Binding to KRas (IC50 nM) G12R, TR-FRET displacement, KRas G12R.
A further test concerns A549 cells. The test can be described thus: Inhibition of KRas-mediated phosphorylation of ERK (Cisbio HTRF pERK), A549 cells. It is filed as cell-based. The settings on record: Homo sapiens; for inhibition at 0.1 µM: single point at 100 nM, 3 hrs compound incubation.
A further test concerns H358 cells. The test can be described thus: Inhibition of KRas-mediated phosphorylation of ERK (Cisbio HTRF pERK), H358 cells. It is filed as cell-based. The settings on record: Homo sapiens; for inhibition at 0.1 µM: NCI-H358, single point at 100 nM, 3 hrs compound incubation.
The target of another test is KRas G12D (Homo sapiens, UniProt P01116, G12D). Put plainly: biochemical. The settings on record: Binding to KRas (IC50 nM) G12D, TR-FRET displacement, KRas G12D.
The next test concerns H460 cells. Put plainly: Inhibition of KRas-mediated phosphorylation of ERK (Cisbio HTRF pERK), H460 cells. The format is cell-based. The settings on record: Homo sapiens; for inhibition at 0.1 µM: NCI-H460, single point at 100 nM, 3 hrs compound incubation.
In the next test the test system is ASPC1 cells. The test can be described thus: Inhibition of KRas-mediated phosphorylation of ERK (Cisbio HTRF pERK), ASPC1 cells. The settings on record: Homo sapiens, AsPC-1 cells; for IC50: ASPC1, 3 h, 3 hr compound incubation, Cisbio pERK HTRF; for inhibition at 0.1 µM: ASPC1, single point at 100 nM, 3 hrs compound incubation. It is filed as cell-based.
In another test the target is KRas G12V (Homo sapiens, UniProt P01116, G12V). Put plainly: biochemical. The settings on record: Binding to KRas (IC50 nM) G12V, TR-FRET displacement, KRas G12V.
Another test concerns HCT116 cells. Put plainly: Inhibition of KRas-mediated phosphorylation of ERK (Cisbio HTRF pERK), HCT116 cells. The settings on record: Homo sapiens; for inhibition at 0.1 µM: HCT-116, single point at 100 nM, 3 hrs compound incubation. It is filed as cell-based.

Our source for the IC50 and inhibition values is patent US20250368649A1, “TETRAHYDROPYRIDOPYRIMIDINE PAN-KRAS INHIBITORS” (Mirati Therapeutics, Inc., priority 2022, published 2025).

Chain of KRas G12R (P01116 1-169 isoform P01116-2 G12R): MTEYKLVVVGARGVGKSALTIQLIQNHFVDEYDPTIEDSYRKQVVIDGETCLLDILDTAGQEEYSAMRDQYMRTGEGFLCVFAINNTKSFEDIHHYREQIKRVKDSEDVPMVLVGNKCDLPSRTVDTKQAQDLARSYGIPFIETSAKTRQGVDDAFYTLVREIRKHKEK
Chain of KRas G12D (P01116 1-169 isoform P01116-2 G12D): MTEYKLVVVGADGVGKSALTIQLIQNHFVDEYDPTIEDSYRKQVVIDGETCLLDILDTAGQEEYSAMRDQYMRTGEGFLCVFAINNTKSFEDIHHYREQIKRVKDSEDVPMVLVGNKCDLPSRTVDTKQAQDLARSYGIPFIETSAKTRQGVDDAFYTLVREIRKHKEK
Chain of KRas G12V (P01116 1-169 isoform P01116-2 G12V): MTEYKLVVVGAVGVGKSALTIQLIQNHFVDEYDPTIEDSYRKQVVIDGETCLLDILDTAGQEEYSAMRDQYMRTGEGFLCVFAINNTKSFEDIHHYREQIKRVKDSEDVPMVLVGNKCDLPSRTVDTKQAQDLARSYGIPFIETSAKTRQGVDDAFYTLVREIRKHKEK

For the molecule `CCc1c(F)ccc2cc(O)cc(N3CCc4c(nc(OC[C@@]56CCCN5C[C@H](F)C6)nc4N4CCCC5(C4)NC(=O)NC5=S)C3)c12` (stereo partly drawn) [Example 250, 7-(7-(8-ethyl-7-fluoro-3-hydroxynaphthalen-1-yl)-2-(((2R,7aS)-2-fluorohexahydro-1H-pyrrolizin-7a-yl)methoxy)-5,6,7,8-tetrahydropyrido[3,4-d]pyrimidin-4-yl)-4-thioxo-1,3,7-triazaspiro[4.5]decan-2-one], the IC50 in the test with H727 cells was found to be 763 nM; at KRas G12R, 9 nM; at KRas G12D, 19 nM; in the test with ASPC1 cells, 283 nM; on KRas G12V it was 10 nM. Moreover, the inhibition at 0.1 µM was 25% in the test on H727 cells; 36% with A549 cells; 34% in the test on H358 cells; 36% in the test on H460 cells; -2% in the test on ASPC1 cells; 26% with HCT116 cells.

Regarding `CCc1c(F)ccc2cc(O)cc(N3CCc4c(nc(OC[C@@]56CCCN5C[C@H](F)C6)nc4N4CCCCC(COCC(=O)N(C)C)C4)C3)c12` (stereo partly drawn) [Example 251, 2-((1-(7-(8-ethyl-7-fluoro-3-hydroxynaphthalen-1-yl)-2-(((2R,7aS)-2-fluorohexahydro-1H-pyrrolizin-7a-yl)methoxy)-5,6,7,8-tetrahydropyrido[3,4-d]pyrimidin-4-yl)azepan-3-yl)methoxy)-N,N-dimethylacetamide], the IC50 was 1200 nM with H727 cells; 3 nM on KRas G12R; 7 nM at KRas G12D; 1310 nM in the test with ASPC1 cells; 5 nM on KRas G12V. In addition, the inhibition at 0.1 µM is 3% in the test on H727 cells; 21% in the test with A549 cells; 2% with H358 cells; 15% in the test on H460 cells; -4% with ASPC1 cells; -7% with HCT116 cells.

Regarding `CCc1c(F)ccc2cc(O)cc(N3CCc4c(nc(OC[C@@]56CCCN5C[C@H](F)C6)nc4N4CCCCC(COC(C)C(=O)N(C)C)C4)C3)c12` (stereo partly drawn) [Example 252, 2-((1-(7-(8-ethyl-7-fluoro-3-hydroxynaphthalen-1-yl)-2-(((2R,7aS)-2-fluorohexahydro-1H-pyrrolizin-7a-yl)methoxy)-5,6,7,8-tetrahydropyrido[3,4-d]pyrimidin-4-yl)azepan-3-yl)methoxy)-N,N-dimethylpropanamide], the IC50 turned out to be 1740 nM with H727 cells; 7 nM at KRas G12R; 23 nM at KRas G12D; 1950 nM in the test on ASPC1 cells; 11 nM on KRas G12V. The inhibition at 0.1 µM in the test on H727 cells is 0%; in the test on A549 cells, 16%; in the test with H358 cells, -7%; with H460 cells it was 3%; in the test on ASPC1 cells, -5%; with HCT116 cells, 14%.

Consider `CCc1c(F)ccc2cc(O)cc(N3CCc4c(nc(OC[C@@]56CCCN5C[C@H](F)C6)nc4N4CCCCC(C(=O)N(C)C)C4)C3)c12` (stereo partly drawn) [Example 313, 1-(7-(8-ethyl-7-fluoro-3-hydroxynaphthalen-1-yl)-2-(((2R,7aS)-2-fluorohexahydro-1H-pyrrolizin-7a-yl)methoxy)-5,6,7,8-tetrahydropyrido[3,4-d]pyrimidin-4-yl)-N,N-dimethylazepane-3-carboxamide], for which the IC50 was 747 nM in the test on H727 cells; 25 nM on KRas G12R; 38 nM on KRas G12D; 2400 nM with ASPC1 cells; 7 nM at KRas G12V. Moreover, the inhibition at 0.1 µM with A549 cells is 7%; in the test on H358 cells, 8%; with H460 cells, 31%; in the test on HCT116 cells it was 2%.

Turning to `CCc1c(F)ccc2cc(O)cc(N3CCc4c(nc(OC[C@@]56CCCN5C[C@H](F)C6)nc4N4CCCCC(C(=O)NC)C4)C3)c12` (stereo partly drawn) [Example 314, 1-(7-(8-ethyl-7-fluoro-3-hydroxynaphthalen-1-yl)-2-(((2R,7aS)-2-fluorohexahydro-1H-pyrrolizin-7a-yl)methoxy)-5,6,7,8-tetrahydropyrido[3,4-d]pyrimidin-4-yl)-N-methylazepane-3-carboxamide], the half-inhibitory concentration (IC50) with H727 cells amounted to 406 nM; at KRas G12R it was 7 nM; on KRas G12D it was 10 nM; in the test with ASPC1 cells, 803 nM; on KRas G12V, 3 nM. For the same molecule, the inhibition at 0.1 µM is 3% with A549 cells, 0% in the test on H358 cells, 13% with H460 cells and 4% with HCT116 cells.

On to `CCc1c(F)ccc2cc(O)cc(N3CCc4c(nc(OC[C@@]56CCCN5C[C@H](F)C6)nc4N4CCCCC(C(N)=O)C4)C3)c12` (stereo partly drawn) [Example 315, 1-(7-(8-ethyl-7-fluoro-3-hydroxynaphthalen-1-yl)-2-(((2R,7aS)-2-fluorohexahydro-1H-pyrrolizin-7a-yl)methoxy)-5,6,7,8-tetrahydropyrido[3,4-d]pyrimidin-4-yl)azepane-3-carboxamide], for which the IC50 in the test with H727 cells was 681 nM; on KRas G12R, 5 nM; on KRas G12D, 9 nM; in the test on ASPC1 cells, 1300 nM; at KRas G12V, 3 nM. In addition, the inhibition at 0.1 µM is -26% in the test on A549 cells, 11% with H358 cells, 4% with H460 cells and 2% in the test with HCT116 cells.

Regarding `CCc1c(F)ccc2cc(O)cc(N3CCc4c(nc(OC[C@@]56CCCN5C[C@H](F)C6)nc4N4CCCn5nc(CCCC(=O)N(C)C)cc5C4)C3)c12` [Example 316, 4-(5-(7-(8-ethyl-7-fluoro-3-hydroxynaphthalen-1-yl)-2-(((2R,7aS)-2-fluorohexahydro-1H-pyrrolizin-7a-yl)methoxy)-5,6,7,8-tetrahydropyrido[3,4-d]pyrimidin-4-yl)-5,6,7,8-tetrahydro-4H-pyrazolo[1,5-a][1,4]diazepin-2-yl)-N,N-dimethylbutanamide], the concentration for half-maximal inhibition (IC50) was determined as 687 nM in the test with H727 cells; 6 nM on KRas G12R; 1390 nM in the test on A549 cells (A549, 3 h, 3 hr compound incubation, Cisbio pERK HTRF); 536 nM in the test on H358 cells (NCI-H358, 3 h, 3 hr compound incubation, Cisbio pERK HTRF); 6 nM at KRas G12D; 1770 nM in the test with H460 cells (NCI-H460, 3 h, 3 hr compound incubation, Cisbio pERK HTRF). Also, the IC50 stood at 879 nM in the test on ASPC1 cells; 5 nM on KRas G12V; 3140 nM with HCT116 cells (HCT-116, 3 h, 3 hr compound incubation, Cisbio pERK HTRF). The inhibition at 0.1 µM with A549 cells is -4%; in the test on H358 cells it was -22%; with H460 cells, -20%; in the test with HCT116 cells, -2%.

For `CCc1c(F)ccc2cc(O)cc(N3CCc4c(nc(OC[C@@]56CCCN5C[C@H](F)C6)nc4N4CCCn5nc(N(C)S(=O)(=O)C(C)C)cc5C4)C3)c12` [Example 321, N-(5-(7-(8-ethyl-7-fluoro-3-hydroxynaphthalen-1-yl)-2-(((2R,7aS)-2-fluorohexahydro-1H-pyrrolizin-7a-yl)methoxy)-5,6,7,8-tetrahydropyrido[3,4-d]pyrimidin-4-yl)-5,6,7,8-tetrahydro-4H-pyrazolo[1,5-a][1,4]diazepin-2-yl)-N-methylpropane-2-sulfonamide], the IC50 in the test on H727 cells stood at 1920 nM; on KRas G12R, 146 nM; on KRas G12D, 69 nM; with ASPC1 cells it was 1900 nM; on KRas G12V, 171 nM. For the same molecule, the inhibition at 0.1 µM in the test on A549 cells was 14%; with H358 cells, 7%; in the test with H460 cells, 16%; in the test on HCT116 cells, 5%.

As for `CCc1c(F)ccc2cc(O)cc(N3CCc4c(nc(OC[C@@]56CCCN5C[C@H](F)C6)nc4N4CCCn5nc(CNS(=O)(=O)NC)cc5C4)C3)c12` [Example 324, 7-(8-ethyl-7-fluoro-3-hydroxy-1-naphthyl)-2-(((2R,7aS)-2-fluorotetrahydro-1H-pyrrolizin-7a(5H)-yl)methoxy)-4-(2-((methylsulfamoyl)amino)methyl-7,8-dihydro-4H-pyrazolo[1,5-a][1,4]diazepin-5(6H)-yl)-6,8-dihydro-5H-pyrido[3,4-d]pyrimidine], the IC50 in the test on H727 cells turned out to be 1180 nM; at KRas G12R, 4 nM; on KRas G12D, 2 nM; with ASPC1 cells, 830 nM; on KRas G12V it was 6 nM. Also, the inhibition at 0.1 µM is 11% in the test on A549 cells, 4% in the test on H358 cells, 21% in the test on H460 cells and -1% in the test with HCT116 cells.
